Data on 38 compounds can be found in patent publication US20030225081A1, “Pyridazinones and triazinones and medicinal use thereof” (priority 2000, published 2003).

Structures are written as SMILES.

The test system of the test is AMPA receptor. The experiment in a line: Suppressing action to calcium influx into nerve cells induced by AMPA. The following applies: Fura2-AM, stimulation with 2 μM AMPA, primary culture of rat embryo cerebral cortex nerve cells, 1 μM MK-801. It is filed as cell-based. From the text: Suppressing Action to Calcium Influx into Nerve Cells Induced by AMPA
The suppressing action of the compounds of the present invention to calcium influx into nerve cells induced by AMPA was investigated using the primary culture system of nerve cells of cerebral cortex of embryo of rat.
Cerebral cortex was cut out from the brain of rat of gestational 18 days and treated with trypsin and DNase to disperse the cells. The cells were flown by MEM containing 10% of serum, sown in a culture bottle and astrocytes were proliferated. The astrocytes were re-dispersed by trypsin and sown in a 96-well plate. After incubation for one week, it was confirmed that the astrocytes covered all over the bottom and then the nerve cells of cerebral cortex which was dispersed by the above method were sown thereupon. After incubation for 24 hours, the medium was changed, the incubation was carried out for one week and, after that, the medium was changed to that containing 1 μM of MK-801. Nerve cells which were incubated for not shorter than 8 to 10 days were used.
Calcium influx into the cells was measured using Fura2-AM which was a calcium-sensitive fluorescent dye. It was treated in a medium containing Fura2-AM for 1 hour, incorporated into the cells, exchanged to a Tyrode solution containing 1 μM MK-801 and stimulation was carried out using 2 μM AMPA. Change in the amount of calcium flown into the cells were measured as the change in the fluorescent intensity at the exciting wave length of 340/380 nm. […] As the control compound, GYKI52466 (Le Peillet, et al., Brain Res., 571, 115, 1992) was used.
For `O=C1C(c2ccccc2)CC(c2ccccn2)=NN1c1ccccc1Br` (centres unmarked) [Example 19, 2-(2-Bromophenyl)-4-phenyl-6-(2-pyridyl)-4,5-dihydro-3 (2H)-pyridazinone], the IC50 (as a rule, the concentration needed to halve the response being measured) stood at 60 nM.

As to `O=C1C(c2ccccc2)CC(c2ccccn2)=NN1c1ccccc1[N+](=O)[O-]` (centres unmarked) [Example 27, 4-Phenyl-2-(2-nitrophenyl)-6-(2-pyridyl)-4,5-dihydro-3 (2H)-pyridazinone], the IC50 was 40 nM.

Consider `COc1ccccc1N1CC(c2ccccn2)=NN(c2ccccc2Br)C1=O` [Example 85, 2-(2-Bromophenyl)-4-(2-methoxyphenyl)-6-(2-pyridyl)-4,5-dihydro-1,2,4-triazin-3 (2H)-one], for which the IC50 is 200 nM.

As to `O=C1C(c2ccccc2O)CC(c2ccccn2)=NN1c1ccccc1` (centres unmarked) [Example 33, 4-(2-Hydroxyphenyl)-2-phenyl-6-(2-pyridyl)-4,5-dihydro-3 (2H)-pyridazinone], the IC50 was 70 nM.

As for `N#Cc1ccccc1-n1nc2c(c(-c3ccccc3)c1=O)COc1ccc(F)cc1-2` [Example 54, 2-(2-Cyanophenyl)-9-fluoro-4-phenyl-2,3-dihydro-5H-(1)benzopyrano[4,3-c]pyridazin-3-one], the half-maximal inhibitory concentration (IC50) is 100 nM.

As for `O=C1C(c2cccc(O)c2)CC(c2ccccn2)=NN1c1ccccc1Br` (centres unmarked) [Example 2, 2-(2-Bromophenyl)-4-(3-hydroxyphenyl)-6-(2-pyridyl)-4,5-dihydro-3 (2H)-pyridazinone], the half-maximal inhibitory concentration (IC50) worked out at 100 nM.

On to `N#Cc1ccccc1N1N=C(c2ccccc2O)CN(c2ccccc2)C1=O` [Example 93, 2-(2-Cyanophenyl)-6-(2-hydroxyphenyl)-4-phenyl-4,5-dihydro-1,2,4-triazin-3 (2H)-one], for which the half-inhibitory concentration (IC50) came out at 30 nM.

In the case of `N#Cc1ccccc1N1N=C(c2ccccn2)CN(c2cccc(N)c2)C1=O` [Example 128, 2-(2-Cyanophenyl)-4-(3-aminophenyl)-6-(2-pyridyl)-4,5-dihydro-1,2,4-triazin-3 (2H)-one], the IC50 worked out at 100 nM.

With `O=C1C(c2cccnc2)C2COc3ccccc3C2=NN1c1ccccc1I` (centres unmarked) [Example 8, 2-(2-Iodophenyl)-4-(3-pyridyl)-2,3,4,4a-tetrahydro-5H-(1)benzopyrano[4,3-c]pyridazin-3-one], the half-maximal inhibitory concentration (IC50) was 100 nM.

For `CSc1ccc(N2CC(c3ccccn3)=NN(c3ccccc3Br)C2=O)cc1` [Example 125, 2-(2-Bromophenyl)-4-(4-thiomethoxyphenyl)-6-(2-pyridyl)-4,5-dihydro-1,2,4-triazin-3 (2H)-one], the IC50 worked out at 600 nM.

In the case of `O=C1C(c2ccccc2O)CC(c2cccnc2)=NN1c1ccccc1Br` (centres unmarked) [Example 34, 2-(2-Bromophenyl)-4-(2-hydroxyphenyl)-6-(3-pyridyl)-4,5-dihydro-3 (2H)-pyridazinone], the IC50 worked out at 300 nM.

Take `O=c1c(-c2cccc(OCCO)c2)cc(-c2ccccn2)nn1-c1ccccc1Br` [Example 3, 2-(2-Bromophenyl)-4-[3-(2-hydroxyethoxy)phenyl]-6-(2-pyridyl)-3 (2H)-pyridazinone]: the half-maximal inhibitory concentration (IC50) was determined as 200 nM.

For the compound `O=c1c(-c2cccnc2)cc(-c2ccccn2)nn1-c1ccsc1` [Example 73, 2-(Thiophen-3-yl)-4-(3-pyridyl)-6-(2-pyridyl)-3 (2H)-pyridazinone], the concentration for half-maximal inhibition (IC50) came to 1100 nM.

For `N#Cc1ccccc1N1N=C2c3cc(F)ccc3OCC2C(c2ccccc2)C1=O` (centres unmarked) [Example 48, 2-(2-Cyanophenyl)-9-fluoro-4-phenyl-2,3,4,4a-tetrahydro-5H-(1)benzopyrano[4,3-c]pyridazin-3-one], the IC50 is 100 nM.

With `N#Cc1ccccc1N1N=C2c3ccccc3OCC2C(c2cccnc2)C1=O` (centres unmarked) [Example 49, 2-(2-Cyanophenyl)-4-(3-pyridyl)-2,3,4,4a-tetrahydro-5H-(1) benzopyrano[4,3-c]pyridazin-3-one], the IC50 came to 70 nM.

On to `COc1ccccc1N1N=C(c2ccccn2)CC(c2ccccc2)C1=O` (centres unmarked) [Example 26, 2-(2-Methoxyphenyl)-4-phenyl-6-(2-pyridyl)-4,5-dihydro-3 (2H)-pyridazinone], for which the IC50 stood at 300 nM.

As to `O=c1c(-c2ccccc2O)cc(-c2ccccn2)nn1-c1ccccc1Br` [Example 51, 2-(2-Bromophenyl)-4-(2-hydroxyphenyl)-6-(2-pyridyl)-3 (2H)-pyridazinone], the concentration for half-maximal inhibition (IC50) was 800 nM.

`COc1ccc(Br)cc1-c1cc(-c2ccccn2)nn(-c2ccccc2C#N)c1=O` [Example 44, 2-(2-Cyanophenyl)-4-(3-bromo-6-methoxyphenyl)-6-(2-pyridyl)-3 (2H)-pyridazinone]: the half-maximal inhibitory concentration (IC50) came out at 200 nM.

For `O=c1c(-c2ccccc2)cc(-c2ccccn2)nn1-c1ccc[n+]([O-])c1` [Example 79, 2-(3-Pyridin-1-oxide)-4-phenyl-6-(2-pyridyl)-3 (2H)-pyridazinone], the half-maximal inhibitory concentration (IC50) amounted to 7200 nM.

Consider `O=C1N(c2ccsc2)CC(c2ccccn2)=NN1c1ccccc1Br` [Example 106, 2-(2-Bromophenyl)-6-(2-pyridyl)-4-(thiophen-3-yl)-4,5-dihydro-1,2,4-triazin-3 (2H)-one], for which the IC50 worked out at 100 nM.

Regarding `COc1ccccc1C1=NN(c2ccccc2Br)C(=O)N(c2ccccn2)C1` [Example 92, 2-(2-Bromophenyl)-6-(2-methoxyphenyl)-4-(2-pyridyl)-4,5-dihydro-1,2,4-triazin-3 (2H)-one], the concentration for half-maximal inhibition (IC50) worked out at 100 nM.

In the case of `O=c1c(-c2ccccc2)cc(-c2ncccn2)nn1-c1cccnc1` [Example 75, 2-(3-Pyridyl)-4-phenyl-6-(2-pyrimidinyl)-3 (2H)-pyridazinone], the half-maximal inhibitory concentration (IC50) was determined as 700 nM.

Consider `COc1cccc(-c2cc(-c3ccccn3)nn(-c3ccccc3Br)c2=O)c1` [Example 52, 2-(2-Bromophenyl)-4-(3-methoxyphenyl)-6-(2-pyridyl)-3 (2H)-pyridazinone], for which the IC50 was 200 nM.

Consider `N#Cc1ccccc1-n1nc(-c2nccs2)cc(-c2ccccc2)c1=O` [Example 83, 2-(2-Cyanophenyl)-4-phenyl-6-(thiazol-2-yl)-3 (2H)-pyridazinone], for which the 50% inhibitory concentration (IC50) was determined as 600 nM.

On to `N#Cc1ccccc1N1N=C(c2ccccn2)CN(c2cccc([N+](=O)[O-])c2)C1=O` [Example 127, 2-(2-Cyanophenyl)-4-(3-nitrophenyl)-6-(2-pyridyl)-4,5-dihydro-1,2,4-triazin-3 (2H)-one], for which the 50% inhibitory concentration (IC50) was 400 nM.

Take `COc1ccccc1C1CC(c2ccccn2)=NN(c2ccccc2C#N)C1=O` (centres unmarked) [Example 39, 2-(2-Cyanophenyl)-4-(2-methoxyphenyl)-6-(2-pyridyl)-4,5-dihydro-3 (2H)-pyridazinone]: the IC50 was 50 nM.

Turning to `N#Cc1ccccc1-n1nc(-c2ccccn2)cc(-c2ccccc2Br)c1=O` [Example 47, 4-(2-Bromophenyl)-2-(2-cyanophenyl)-6-(2-pyridyl)-3 (2H)-pyridazinone], the concentration for half-maximal inhibition (IC50) worked out at 200 nM.

Turning to `O=c1c(-c2ccccc2)cc(-c2ccccn2)nn1-c1ccccc1Br` [Example 56, 2-(2-Bromophenyl)-4-phenyl-6-(2-pyridyl)-3 (2H)-pyridazinone], the IC50 came out at 200 nM.

In the case of `O=c1c(-c2ccccc2O)cc(-c2ccccn2)nn1-c1ccccc1` [Example 32, 4-(2-Hydroxyphenyl)-2-phenyl-6-(2-pyridyl)-3 (2H)-pyridazinone], the IC50 was 100 nM.

In the case of `O=c1c(-c2ccccc2)cc(-c2ccccn2)nn1-c1cccnc1` [Example 74, 2-(3-Pyridyl)-4-phenyl-6-(2-pyridyl)-3 (2H)-pyridazinone], the half-maximal inhibitory concentration (IC50) was 900 nM.

Take `O=C1N(c2ccccc2)CC(c2ccccc2)=NN1c1ccccc1Br` [Example 112, 2-(2-Bromophenyl)-4,6-diphenyl-4,5-dihydro-1,2,4-triazin-3 (2H)-one]: the half-inhibitory concentration (IC50) was 300 nM.

Take `O=c1c(-c2ccccc2Br)cc(-c2ccccn2)nn1-c1ccccc1` [Example 60, 4-(2-Bromophenyl)-2-phenyl-6-(2-pyridyl)-3 (2H)-pyridazinone]: the 50% inhibitory concentration (IC50) was 200 nM.

On to `O=C1N(c2ccccc2)CC(c2ccccc2O)=NN1c1ccccc1Br` [Example 90, 2-(2-Bromophenyl)-6-(2-hydroxyphenyl)-4-phenyl-4,5-dihydro-1,2,4-triazin-3 (2H)-one], for which the IC50 came to 900 nM.

Take `COc1ccccc1C1=NN(c2ccccc2)C(=O)N(c2ccccc2C#N)C1` [Example 98, 4-(2-Cyanophenyl)-6-(2-methoxyphenyl)-2-phenyl-4,5-dihydro-1,2,4-triazin-3 (2H)-one]: the IC50 amounted to 400 nM.

`COc1ccccc1C1CC(c2ccccn2)=NN(c2ccccc2I)C1=O` (centres unmarked) [Example 17, 2-(2-Iodophenyl)-4-(2-methoxyphenyl)-6-(2-pyridyl)-4,5-dihydro-3 (2H)-pyridazinone]: the IC50 came out at 200 nM.

Regarding `O=C1N(c2cccc([N+](=O)[O-])c2)CC(c2ccccn2)=NN1c1ccccc1Br` [Example 121, 2-(2-Bromophenyl)-4-(3-nitrophenyl)-6-(2-pyridyl)-4,5-dihydro-1,2,4-triazin-3 (2H)-one], the IC50 is 400 nM.

`O=C1C(c2cccnc2)C2COc3ccccc3C2=NN1c1ccccc1Br` (centres unmarked) [Example 50, 2-(2-Bromophenyl)-4-(3-pyridyl)-2,3,4,4a-tetrahydro-5H-(1)benzopyrano[4,3-c]pyridazin-3-one]: the IC50 was 100 nM.

In the case of `O=C1C(c2ccccc2)CC(c2ccccc2)=NN1c1ccccn1` (centres unmarked) [Example 21, 4,6-Diphenyl-2-(2-pyridyl)-4,5-dihydro-3 (2H)-pyridazinone], the IC50 was found to be 500 nM.
